Earlier results as cited in paper PMC12311865, “In Vitro Evaluation of the Potential Interactions of Zearalenone-14-sulfate and Zearalenone-14-glucuronide with Human Cytochrome P450 Enzymes, Organic Anion Transporting Polypeptides, and ATP-Binding Cassette Multidrug Transporters” (ACS Omega, 2025).

Target: T1, OATP2B1 (Homo sapiens, UniProt O94956)
T1 construct: expressed in transfected cells; host or cells: A431
T1 sequence (O94956 1-709): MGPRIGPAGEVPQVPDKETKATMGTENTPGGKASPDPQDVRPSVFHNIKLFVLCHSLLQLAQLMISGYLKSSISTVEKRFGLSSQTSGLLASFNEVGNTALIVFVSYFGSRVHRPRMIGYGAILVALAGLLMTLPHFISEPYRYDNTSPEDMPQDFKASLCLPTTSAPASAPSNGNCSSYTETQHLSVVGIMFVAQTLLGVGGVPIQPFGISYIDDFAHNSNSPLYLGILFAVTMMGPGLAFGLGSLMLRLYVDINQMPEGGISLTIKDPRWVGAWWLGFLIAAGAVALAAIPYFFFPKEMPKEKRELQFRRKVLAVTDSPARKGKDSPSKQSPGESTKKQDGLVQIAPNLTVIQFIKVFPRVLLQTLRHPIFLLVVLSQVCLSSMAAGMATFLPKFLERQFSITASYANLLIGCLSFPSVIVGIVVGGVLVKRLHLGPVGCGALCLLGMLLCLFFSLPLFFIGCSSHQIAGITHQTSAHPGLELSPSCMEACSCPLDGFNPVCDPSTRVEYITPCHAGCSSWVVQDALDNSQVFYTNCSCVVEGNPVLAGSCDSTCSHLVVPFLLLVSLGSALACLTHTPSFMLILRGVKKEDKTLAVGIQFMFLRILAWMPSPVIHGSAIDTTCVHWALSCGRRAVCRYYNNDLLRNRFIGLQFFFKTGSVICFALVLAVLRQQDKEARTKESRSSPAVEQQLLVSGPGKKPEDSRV
Set-up: method as in earlier report
Conditions: same experimental model; ref earlier report; cited from earlier work

## C[C@H]1CCCC(=O)CCC/C=C/c2cc(O)cc(O)c2C(=O)O1 [ZEN, Zearalenone]
  IC50: 2300 nM
